In paper PMC5278707, “Structure-Activity Relationships of a Series of Echinocandins and the Discovery of CD101, a Highly Stable and Soluble Echinocandin with Distinctive Pharmacokinetic Properties” (Antimicrobial Agents and Chemotherapy, 2017):
Converted amounts (≈) assume the structure as drawn. Read-outs that look alike come from different tables or passages of the source. *1 amine or outer side, *2 acyl side, *3 side chain or, on linkers, in order; H or OH if unused. Where a SMILES comes first, the peptide text is derived from it. Bridges are numbered along the chain shown (N, C = ends). [ ]: non-standard residue; d: D form. The star is where a group is joined. Orn(4R-OH,5R-OCH2CH2NMe3+) = C[N+](C)(C)CCO[C@@H](N[*:3])[C@H](O)C[C@H](N[*:1])C(=O)[*:2]; pTerphenylCO(4''-OnC5H11) = CCCCCOc1ccc(-c2ccc(-c3ccc(C(=O)*)cc3)cc2)cc1; Orn(4R-OH,5R-OH) = O=C([C@H](C[C@@H](O)[C@@H](O)N[*:3])N[*:1])[*:2]; hTyr(3S-OH,4S-OH) = N[C@H](C(=O)O)[C@H](O)[C@@H](O)c1ccc(O)cc1; Pro(3S-OH,4S-Me) = C[C@H]1CN[C@H](C(=O)O)[C@H]1O; Hyp = O=C(O)[C@@H]1C[C@@H](O)CN1

Assays:
[1] = tested on: Candida parapsilosis ATCC 22019; test: CLSI broth microdilution (M27-A3) MIC; type: cell-based; details: Lodderomyces parapsilosis, ATCC22019, 50% reduction in growth
Experimental: (§1) All yeast and mold isolates were obtained from the American Type Culture Collection (ATCC). Isolates were plated on an agar medium to verify purity, and single colonies were picked. Aspergillus isolates were resubcultured on potato dextrose slants and incubated for 7 days at 35°C. Candida isolates were streaked on SDA plates and incubated for 24 h at 35°C. RPMI 1640 medium (HyClone Laboratories, Logan, UT) and the inoculum for each organism were prepared according to Clinical and Laboratory Standards Institute (CLSI) guidelines ([27][–][29]). Stock solutions for all test articles were prepared in 100% dimethyl sulfoxide (DMSO). Susceptibility testing was performed using CLSI broth microdilution methods for Candida (M27-A3) and Aspergillus (M38-A2). Amphotericin B was tested at a range of 0.06 to 64 μg/ml; all other antifungal agents were tested at 0.015 to 16 μg/ml. Plates were incubated at 35°C and were read from the bottom using a plate viewer after 24 and 48 h for Candida and after 48 h for Aspergillus. MIC values are reported as the lowest drug concentration to yield a 50% reduction in the growth of Candida species tested compared to the control well. Minimum effective concentration (MEC) values are reported as the lowest drug concentration to yield the stunted hyphal growth of Aspergillus species tested compared to that of the control well.

[2] = tested on: Candida lusitaniae ATCC 34134; test: CLSI broth microdilution (M27-A3) MIC; type: cell-based; details: Clavispora lusitaniae
Experimental: as §1

[3] = tested on: Candida guilliermondii ATCC 34134; test: CLSI broth microdilution (M27-A3) MIC; type: cell-based; details: Meyerozyma guilliermondii, ATCC34134, 50% reduction in growth
Experimental: as §1

[4] = tested on: Candida krusei ATCC 14243; test: CLSI broth microdilution (M27-A3) MIC; type: cell-based; details: Pichia kudriavzevii, ATCC14243, 50% reduction in growth
Experimental: as §1

[5] = tested on: Candida albicans ATCC 90028; test: CLSI broth microdilution (M27-A3) MIC; type: cell-based; details: 50% reduction in growth
Experimental: as §1

[6] = tested on: Candida tropicalis ATCC 90874; test: CLSI broth microdilution (M27-A3) MIC; type: cell-based; details: 50% reduction in growth
Experimental: as §1

[7] = tested on: Candida glabrata ATCC 90030; test: CLSI broth microdilution (M27-A3) MIC; type: cell-based; details: Nakaseomyces glabratus, ATCC90030, 50% reduction in growth, read-out: MIC
Experimental: as §1

Candida albicans R303 = test: mouse model of disseminated candidiasis, fungal burden in kidneys; type: in vivo; details: kidneys at 24 h; for reductions in fungal burden vs infected control (statistical significance): neutropenic CD-1 mice, 0.5, 1.5 or 4.5 mg/kg 2 h after inoculation
Experimental: Candida albicans R303 was grown on Sabouraud dextrose agar (SDA) plates for 24 h at 35°C. Colonies were transferred to phosphate-buffered saline (PBS) and diluted to 3.8 × 10^5 CFU/ml. Female CD-1 mice (Charles River Laboratories, Portage, MI) were rendered neutropenic via injection with cyclophosphamide (150 mg/kg) 5 days and 2 days prior to inoculation. Each animal was infected by injecting 0.1 ml of inoculum into the tail vein. In the treatment groups, animals received 0.5, 1.5, or 4.5 mg/kg of test article 2 h after inoculation. Two groups of untreated, infected controls were used to evaluate fungal burden: at 2 h when test articles were administered in the treatment groups and at 24 h when the treatment groups were sacrificed. Kidneys were harvested at 2 h in one untreated control group and at 24 h in all other groups. The kidneys were homogenized in 2 ml of sterile phosphate-buffered saline, and 0.1-ml aliquots were spread on SDA plates and incubated at 35°C overnight. Fungal burden was determined based on the log10 C. albicans CFU counts from paired kidneys. Data were analyzed using a one-way analysis of variance (ANOVA) and the Dunnett multiple comparisons test comparing the test articles to the infected control group (GraphPad InStat version 3.1; GraphPad Software, San Diego, CA).

[8] = humans, clinical trials ref 22; cited from earlier work
[9] = tested on: Aspergillus clavatus ATCC 10058; test: CLSI broth microdilution (M38-A2) MEC/MIC; type: cell-based; details: read at 68 h, stunted hyphal growth
Experimental: as §1, with “Plates were incubated at 35°C and were read from the bottom using a plate viewer after 24 and 48 h for Candida and after 48 h for Aspergillus.” left out

Aspergillus spp. = test: CLSI broth microdilution (M38-A2) MEC, whole panel; type: cell-based; details: 48 h, summary of Table 3
Experimental: as §1

[10] = single-dose pharmacokinetics in beagle dogs; details: male, dog, in vivo, iv
Experimental: Four male, nonnaive beagle dogs received a single i.v. infusion (1.4 mg/kg) of test article over 10 min via a catheter placed in the cephalic vein. Blood draws (1.0 ml) were taken at 0.083, 0.33, 0.75, 1.5, 4.5, 12, 24, and 48 h. An additional blood draw at 72 h was obtained for CD101. Blood draws were taken from the jugular vein and were collected into K3 EDTA tubes. Following blood collection, the samples were immediately inverted several times and were held on wet ice pending centrifugation. The samples were centrifuged within ∼30 min of collection under refrigeration (∼5°C for ∼10 min at ∼2,000 g) to obtain plasma. The plasma samples were frozen immediately on dry ice after separation and were stored at approximately −70°C until analysis. Levels of test article in the plasma samples were measured by quantitative liquid chromatography-tandem mass spectrometry (LC-MS/MS) analysis compared to a calibration curve and an internal standard. Pharmacokinetic parameters were calculated from the plasma concentration-time data using standard noncompartmental methods and utilizing WinNonlin analysis software.

[11] = tested on: Aspergillus fumigatus ATCC 204305; test: CLSI broth microdilution (M38-A2) MEC/MIC; type: cell-based; details: 48 h, stunted hyphal growth
Experimental: as §1

[12] = tested on: Aspergillus ochraceus ATCC 96919; test: CLSI broth microdilution (M38-A2) MEC/MIC; type: cell-based; details: 48 h, stunted hyphal growth
Experimental: as §1

[13] = tested on: Aspergillus flavus ATCC 22546; test: CLSI broth microdilution (M38-A2) MEC/MIC; type: cell-based; details: 48 h, stunted hyphal growth
Experimental: as §1

[14] = tested on: Aspergillus fumigatus ATCC MYA-3626; test: CLSI broth microdilution (M38-A2) MEC/MIC; type: cell-based; details: 48 h, stunted hyphal growth
Experimental: as §1

[15] = tested on: Aspergillus candidus ATCC 13686; test: CLSI broth microdilution (M38-A2) MEC/MIC; type: cell-based; details: 48 h, stunted hyphal growth
Experimental: as §1

[16] = tested on: Aspergillus niger ATCC 16888; test: CLSI broth microdilution (M38-A2) MEC/MIC; type: cell-based; details: 48 h, stunted hyphal growth
Experimental: as §1

[17] = ATCC34134, 24 h, 50% reduction in growth, read-out: MIC
[18] = ATCC34134, 48 h, 50% reduction in growth, read-out: MIC
[19] = beagle dogs, single i.v. 1.4 mg/kg, 10-min slow bolus
[20] = beagle dogs, single i.v. 1.4 mg/kg, 10-min slow bolus, read-out: V (volume of distribution)
[21] = beagle dogs, single i.v. 1.4 mg/kg, 10-min slow bolus, read-out: t1/2 (converted)

| SMILES | MIC ([1]; 24 h) [µg/mL] | MIC ([1]; 48 h) [µg/mL] | MIC ([3]; 24 h) [µg/mL] | MIC ([3]; 48 h) [µg/mL] | MIC ([4]; 24 h) [µg/mL] | MIC ([4]; 48 h) [µg/mL] | MIC ([5]; ATCC90028, 24 h) [µg/mL] | MIC ([5]; ATCC90028, 48 h) [µg/mL] | MIC ([6]; ATCC90874, 24 h) [µg/mL] | MIC ([6]; ATCC90874, 48 h) [µg/mL] | MIC ([7]; 24 h) [µg/mL] | MIC ([7]; 48 h) [µg/mL] | MEC [9] [µg/mL] | MEC values against all Aspergillus species tested (Aspergillus spp.) | MEC [11] [µg/mL] | MEC [12] [µg/mL] | MEC [13] [µg/mL] | MEC [14] [µg/mL] | MEC [15] [µg/mL] | MEC [16] [µg/mL] | also measured |
| --- | --- | --- | --- | --- | --- | --- | --- | --- | --- | --- | --- | --- | --- | --- | --- | --- | --- | --- | --- | --- | --- |
| CCCCCOc1ccc(-c2ccc(-c3ccc(C(=O)N[C@H]4C[C@@H](O)[C@@H](OCC[N+](C)(C)C)NC(=O)[C@@H]5[C@@H](O)[C@@H](C)CN5C(=O)[C@H]([C@@H](C)O)NC(=O)[C@H]([C@H](O)[C@@H](O)c5ccc(O)cc5)NC(=O)[C@@H]5C[C@@H](O)CN5C(=O)[C@H]([C@@H](C)O)NC4=O)cc3)cc2)cc1 [CD101] ({pTerphenylCO(4''-OnC5H11)}-[Orn(4R-OH,5R-OCH2CH2NMe3+)]T[Hyp][hTyr(3S-OH,4S-OH)]T[Pro(3S-OH,4S-Me)]; lactam 1-C) | 0.5 | 1 | 0.5 | 2 | 0.03 | 0.03 | 0.03 | 0.03 | ≤ 0.015 | ≤ 0.015 | 0.03 | 0.03 | 0.03 | below 0.03 μg/ml | ≤0.015 | 0.03 | ≤0.015 | ≤0.015 | ≤0.015 | ≤0.015 | MIC [2, 17]: 0.25 µg/mL; MIC [2, 18]: 0.25 µg/mL; reductions in fungal burden vs infected control (statistical significance) (Candida albicans R303): statistically significant (P < 0.01) reductions in fungal burden at all doses; fungal burden relative to limit of detection (Candida albicans R303; neutropenic CD-1 mice, 0.5, 1.5 or 4.5 mg/kg): below the limit of detection for at least one of the doses; half-life in clinical trials [8]: > 80 h; clearance [10, 19]: 0.317 mL/min/kg; Vd [10, 20]: 1.36 L/kg; half-life [10, 21]: 53.1 h |
| CCCCCOc1ccc(-c2ccc(-c3ccc(C(=O)N[C@H]4C[C@@H](O)[C@@H](NCC[N+](C)(C)C)NC(=O)[C@@H]5[C@@H](O)[C@@H](C)CN5C(=O)[C@H]([C@@H](C)O)NC(=O)[C@H]([C@H](O)[C@@H](O)c5ccc(O)cc5)NC(=O)[C@@H]5C[C@@H](O)CN5C(=O)[C@H]([C@@H](C)O)NC4=O)cc3)cc2)cc1 [Compound 6] | 0.25 | 0.5 | 0.5 | 1 | 0.03 | 0.03 | 0.03 | 0.03 | ≤ 0.015 | ≤ 0.015 | 0.03 | 0.03 | 0.03 | below 0.03 μg/ml | ≤0.015 | 0.03 | ≤0.015 | ≤0.015 | ≤0.015 | ≤0.015 | MIC [2, 17]: 0.25 µg/mL; MIC [2, 18]: 0.25 µg/mL; reductions in fungal burden vs infected control (statistical significance) (Candida albicans R303): statistically significant (P < 0.01) reductions in fungal burden at all doses; Vd ([10]; beagle, 1.4 mg/kg): 0.874 L/kg; half-life ([10]; beagle, 1.4 mg/kg): 27.6 h |
| CCCCCOc1ccc(-c2ccc(-c3ccc(C(=O)N[C@H]4C[C@@H](O)[C@@H](O)NC(=O)[C@@H]5[C@@H](O)[C@@H](C)CN5C(=O)[C@H]([C@@H](C)O)NC(=O)[C@H]([C@H](O)[C@@H](O)c5ccc(O)cc5)NC(=O)[C@@H]5C[C@@H](O)CN5C(=O)[C@H]([C@@H](C)O)NC4=O)cc3)cc2)cc1 [Anidulafungin, anidulafungin] ({pTerphenylCO(4''-OnC5H11)}-[Orn(4R-OH,5R-OH)]T[Hyp][hTyr(3S-OH,4S-OH)]T[Pro(3S-OH,4S-Me)]; lactam 1-C) | 0.5 (≈ 0.438 µM) | 0.5 (≈ 0.438 µM) | 1 (≈ 0.877 µM) | 2 (≈ 1.75 µM) | 0.03 (≈ 0.0263 µM) | 0.06 (≈ 0.0526 µM) | ≤ 0.015 | ≤ 0.015 | ≤ 0.015 | ≤ 0.015 | 0.03 (≈ 0.0263 µM) | 0.03 (≈ 0.0263 µM) | ≤0.015 | below 0.03 μg/ml | ≤0.015 | 0.03 | ≤0.015 | ≤0.015 | ≤0.015 | ≤0.015 | MIC ([2]; ATCC34134, 24 h): 0.125 µg/mL (≈ 0.11 µM); MIC ([2]; ATCC34134, 48 h): 0.125 µg/mL (≈ 0.11 µM); clearance [10, 19]: 0.783 mL/min/kg; Vd [10, 20]: 0.779 L/kg; half-life [10, 21]: 11.6 h |
